Measurements reported in patent US5036045A, “Method for increasing growth hormone secretion” (The University of Virginia Alumni Patents Foundation, priority 1988, dated 1991).

Experiments:
growth hormone secretion [1] = conditions: cited from earlier work
growth hormone secretion [2] = test: 6 hour infusion followed by insulin (hypoglycemia) stimulus; type: in vivo, human; conditions: insulin given at the end, compared to hypoglycemia after vehicle infusion
Experimental: (§1) In a most recent study the 6 hour infusion was repeated but insulin was given at the end of the infusion to provide an alternate stimulus (hypoglycemia) for growth hormone secretion compared to hypoglycemia after vehicle infusion. […] Next 24 hour infusions of growth hormone releasing factor were performed and the growth hormone and growth hormone releasing factor secretory profile of a patient were studied with ectopic growth hormone releasing factor secretion (Vance et al, J. Clin. Invest., 1985, 75, 1584-1590). In this patient growth hormone secretion was pulsatile despite continuously elevated immunoreactive growth hormone releasing factor levels. To determine if pulsatile growth hormone secretion is maintained in normal subjects, vehicle or growth hormone releasing factor-40, 2 ng/kg/min, was administered to six healthy young men for 24 hours and gave a supramaximal intravenous bolus dose of growth hormone releasing factor-40, 3 μg/kg after 23.5 hours of infusion.

growth = conditions: normal rat, cited from earlier work
[3] = adverse effects of continuous administration; type: in vivo
growth hormone secretion [4] = test: 14-day continuous intravenous infusion by mechanical pump, 24 hour growth hormone profile; type: in vivo, human; conditions: 10 ng/kg/min intravenous over 14 days, 4 subjects
Experimental: Growth hormone releasing factor was administered by mechanical pump which delivered a dose of 10 ng/kg/min by the intravenous route over 14 days in 4 subjects aged 26 to 31 years. The profile of growth hormone secretion was measured over 24 hours before the initiation of the infusion, on the fourteenth day of the infusion, and two weeks after stopping the infusion.

growth hormone secretion [5] = test: 24 hour infusion in healthy young men with supramaximal bolus after 23.5 hours; type: in vivo, human; conditions: 2 ng/kg/min for 24 hours, six healthy young men
Experimental: as §1

growth hormone secretion [6] = conditions: after 6 hours infusions of 1, 3.3 and 10 ng/kg/min; cited from earlier work

growth hormone releasing factor
release of growth hormone in response to supramaximal dose at end of infusion (growth hormone secretion [1]; end of the 6 or 24 hour infusion): reduced release of growth hormone
growth hormone secretion over the duration of the infusion (growth hormone secretion [1]; short-term administration (6-24 hours)): stimulates growth hormone secretion intermittently
desensitization to growth hormone releasing factor (growth hormone secretion [2]): partial homologous desensitization
growth, continuous administration (growth; continuous administration): does not
growth, pulsatile administration (growth; pulsatile administration): accelerates growth
blood pressure, pulse rate, body temperature [3]: No changes in blood pressure, pulse rate, or body temperature
side effects [3]: no side effects
response to a supramaximal dose of growth hormone releasing factor (growth hormone secretion [4]): normal or accentuated responses
growth hormone secretion (growth hormone secretion [4]; measured on fourteenth day of infusion): augmented growth hormone secretion
serum Insulin Growth Factor-1 (IGF-1) level (growth hormone secretion [4]; marker of biological activity of growth hormone): rise in serum Insulin Growth Factor-1 (IGF-1) level

growth hormone releasing factor-40 (YADAIFTNSYRKVLGQLSARKLLQDIMSRQQGESNQERGA; Somatoliberin; UniProt P01286 32-71, looked up, fragment) [40 amino acid form of human growth hormone releasing factor]
effect on naturally occuring growth hormone pulses (growth hormone secretion [5]): augmentation of naturally occuring growth hormone pulses
growth hormone secretion compared to vehicle infusion (growth hormone secretion [5]): greater growth hormone secretion than did vehicle infusion
pulsatile growth hormone secretion during infusion (growth hormone secretion [5]): pulsatile growth hormone secretion was maintained
growth hormone response to supramaximal bolus at end of infusion (growth hormone secretion [6]): inversely related to the 6 hour infusion dose
